Test results reported in patent publication US6420129B1, “Reagent composition for determination of electrolytes” (Toyo Boseki Kabushiki Kaisha, priority 1998, dated 2002).

Assays:
[1] = biological target: T1, Inactive α-amylase (from swine pancreas) (Sus scrofa, UniProt P00690); assay: Relative sensitivity in determination of calcium with 10 mg/dl calcium standard solution; type: biochemical
T1 construct: α-amylase derived from the swine pancreas; from tissue; host or cells: swine pancreas
T1 sequence (P00690 16-511): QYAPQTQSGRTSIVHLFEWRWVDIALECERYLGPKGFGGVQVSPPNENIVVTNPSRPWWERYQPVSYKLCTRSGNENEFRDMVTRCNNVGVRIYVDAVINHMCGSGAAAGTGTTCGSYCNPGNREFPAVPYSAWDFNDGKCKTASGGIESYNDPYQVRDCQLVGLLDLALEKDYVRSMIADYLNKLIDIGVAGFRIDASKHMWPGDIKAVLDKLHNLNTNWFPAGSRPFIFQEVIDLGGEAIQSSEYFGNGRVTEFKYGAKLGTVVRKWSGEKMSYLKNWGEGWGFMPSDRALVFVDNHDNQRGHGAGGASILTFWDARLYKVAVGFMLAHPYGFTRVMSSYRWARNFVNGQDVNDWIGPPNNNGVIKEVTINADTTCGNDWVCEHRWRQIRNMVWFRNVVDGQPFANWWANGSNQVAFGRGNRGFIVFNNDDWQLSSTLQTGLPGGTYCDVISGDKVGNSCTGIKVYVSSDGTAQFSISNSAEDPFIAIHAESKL

[2] = biological target: T1, Inactive α-amylase (from swine pancreas); assay: Residual activity of α-amylase in test enzyme solutions after storage; type: biochemical; settings: after storage at 35° C. for 7 days
Experimental: [table] In the test enzyme solutions of the reagents for the determination of calcium with the reagent formulations as described above in Example 1, glucosyl-α-cyclodextrin, maltosyl-α-cyclodextrin, glucosyl-β-cyclodextrin, or maltosyl-β-cyclodextrin was independently added as a cyclodextrin derivative at 12 mM. […] Instead of the cyclodextrin derivatives and the SH group containing compounds in the reagent formulations as described above in Example 1, glucose (100 mM), maltose (50 mM), maltotriose (30 mM), α-cyclodextrin (1.5 mM), β-cyclodextrin (1.5 mM), γ-cyclodextrin (1.5 mM), N-acetylcysteine (20 mM), or reduced glutathione (20 mM) was independently added to have the respective concentrations as shown in Table 3.

[3] = biological target: T1, Inactive α-amylase (from swine pancreas); assay: Relative sensitivity in determination of calcium with 10 mg/dl calcium standard solution; type: biochemical; settings: for sensitivity in the determination of the standard solution (in words): by addition of the agent, versus no addition; for Relative sensitivity (%) when sensitivity in case of no addition is taken as 100%: just after the preparation, 10 mg/dl calcium standard
Experimental: [table] In the test enzyme solutions of the reagents for the determination of calcium with the reagent formulations as described above in Example 1, glucosyl-α-cyclodextrin, maltosyl-α-cyclodextrin, glucosyl-β-cyclodextrin, or maltosyl-β-cyclodextrin was independently added as a cyclodextrin derivative at 0, 1.5, 3, 6, or 12 mM. To the test enzyme solutions containing 3 mM glucosyl-β-cyclodextrin was further added independently N-acetylcysteine or reduced glutathione at 2.5, 5, 10, or 20 mM, and the determination of calcium ions with a calcium standard solution was carried out as described below. According to the method as described below, the determination of the amount of calcium was carried out for test solutions just after the preparation with 10 mg/dl calcium standard solution as a sample, and the relative sensitivity (%) was determined under the respective reagent conditions when the sensitivity in the case of no addition of cyclodextrin derivatives was taken as 100%. B. Method for the Determination of the Amount of Calcium To 5.8 μl of a sample was added 180 μl of a test enzyme solution, and the mixture was pre-warmed for 5 minutes, to which 90 μl of a test substrate solution was further added to make the reaction start. […] The measuring apparatus used was HITACHI Automatic Analyzer model 7170. The measurement wavelength was 405 nm for the principal wavelength and 546 nm for the second wavelength. The measurement was carried out at 37° C. […] The test solutions thus prepared were used for the determination of the calcium standard solution in the same manner as described in Example 3.

[4] = Visual observation of test solutions for deposition of crystals or white turbidity; type: physicochemical; design: key to turbidity (visual observation): +: turbidity found; −: no turbidity
Experimental: Among the reagents for the determination of calcium with the reagent formulations as described below, test enzyme solutions were prepared by the addition of glucosyl-α-cyclodextrin (G1αCD), maltosyl-α-cyclodextrin (G2αCD), glucosyl-p-cyclodextrin (G1βCD), or maltosyl-β-cyclodextrin(G2βCD) as a cyclodextrin derivative to have a concentration of 0, 1.5, 3, 6, or 12 mM. To the test enzyme solutions containing 3 mM glucosyl-β-cyclodextrin was further added independently N-acetylcysteine or reduced glutathione to have a concentration of 2.5, 5, 10, or 20 mM.
Both kinds of test solutions prepared by the above procedures were stored at 4° C. for 3 months. Visual observation of the test solutions was carried out just after the preparation and after the storage to examine whether there was found the deposition of crystals or the presence of white turbidity. The results are shown in table 1 for the visual observation just after the preparation and in Table 2 for the visual observation after the storage.
The test solutions were prepared in the same manner as described in Example 1, except that α-cyclodextrin (αCD) (1.5, 3, 6, or 12 mM), β-cyclodextrin (βCD) (1.5, 3, 6, or 12 mM), or γ-cyclodextrin (γCD) (1.5, 3, 6, or 12 mM) was independently added instead of the cyclodextrin derivatives and the SH group containing compounds in the above reagent formulations to have the respective concentrations as shown in Table 1. Both kinds of test solutions were stored at 4° C. for 3 months. Visual observation of the test solutions was carried out just after the preparation and after the storage to examine whether there was found the deposition of crystals or the presence of white turbidity. The results are shown in Table 1 for the visual observation just after the preparation and in Table 2 for the visual observation after the storage.

[5] = after storage at 4° C. for 3 months, agent added 1.5 mM
[6] = after storage at 4° C. for 3 months, agent added 3 mM
[7] = after storage at 4° C. for 3 months, agent added 6 mM
[8] = after storage at 4° C. for 3 months, agent added 12 mM
[9] = just after the preparation, agent added 1.5 mM
[10] = just after the preparation, agent added 3 mM
[11] = just after the preparation, agent added 6 mM
[12] = just after the preparation, agent added 12 mM
[13] = after the storage at 4° C. for 3 months, at 3 mM
[14] = just after the preparation, at 6 mM

SMILES | turbidity (visual observation) [4, 5] | turbidity (visual observation) [4, 6] | turbidity (visual observation) [4, 7] | turbidity (visual observation) [4, 8] | turbidity (visual observation) [4, 9] | turbidity (visual observation) [4, 10] | turbidity (visual observation) [4, 11] | turbidity (visual observation) [4, 12] | Residual activity (%) ([2]; agent 12 mM) | Relative sensitivity (%) when sensitivity in case of no addition is taken as 100% ([3]; agent 1.5 mM) [%] | Relative sensitivity (%) when sensitivity in case of no addition is taken as 100% ([3]; agent 3 mM) [%] | Relative sensitivity (%) when sensitivity in case of no addition is taken as 100% ([3]; agent 6 mM) [%] | Relative sensitivity (%) when sensitivity in case of no addition is taken as 100% ([3]; agent 12 mM) [%] | also measured
OC[C@H]1O[C@H](O[C@H]2[C@H](O)[C@@H](O)C(O)O[C@@H]2CO)[C@H](O)[C@@H](O)[C@@H]1O (mixture of isomers) [maltose] |  |  |  |  |  |  |  |  |  |  |  |  |  | Relative sensitivity (%) when sensitivity in case of no addition is taken as 100% ([1]; agent 6.3 mM): 99.7%; Relative sensitivity (%) when sensitivity in case of no addition is taken as 100% ([1]; agent 12.5 mM): 89.3%; Relative sensitivity (%) when sensitivity in case of no addition is taken as 100% ([1]; agent 25 mM): 83.9%; Relative sensitivity (%) when sensitivity in case of no addition is taken as 100% ([1]; agent 50 mM): 70.1%; remaining activity at 50000 µM ([2]; agent 50 mM): 73.5%; sensitivity in the determination of the standard solution (in words) [3]: remarkably decreased
N[C@@H](CCC(=O)N[C@@H](CS)C(=O)NCC(=O)O)C(=O)O [GSH, reduced glutathione] |  |  |  |  |  |  |  |  |  |  |  |  |  | Residual activity (%) ([2]; agent 20 mM): 75.4%
CC(=O)N[C@@H](CS)C(=O)O [NAC, N-acetylcysteine] |  |  |  |  |  |  |  |  |  |  |  |  |  | remaining activity at 20000 µM ([2]; agent 20 mM): 71.2%
OCC1OC(OC2C(CO)OC(OC3C(CO)OC(O)C(O)C3O)C(O)C2O)C(O)C(O)C1O (stereo not drawn) [maltotriose] |  |  |  |  |  |  |  |  |  |  |  |  |  | Relative sensitivity (%) when sensitivity in case of no addition is taken as 100% ([1]; agent 3.8 mM): 47.1%; Relative sensitivity (%) when sensitivity in case of no addition is taken as 100% ([1]; agent 7.5 mM): 24.3%; Relative sensitivity (%) when sensitivity in case of no addition is taken as 100% ([1]; agent 15 mM): 7.4%; Relative sensitivity (%) when sensitivity in case of no addition is taken as 100% ([1]; agent 30 mM): 4.6%; Residual activity (%) ([2]; agent 30 mM): 77.3%; sensitivity in the determination of the standard solution (in words) [3]: remarkably decreased
OC[C@H]1O[C@@H]2O[C@H]3[C@H](O)[C@@H](O)[C@@H](O[C@H]4[C@H](O)[C@@H](O)[C@@H](O[C@H]5[C@H](O)[C@@H](O)[C@@H](O[C@H]6[C@H](O)[C@@H](O)[C@@H](O[C@H]7[C@H](O)[C@@H](O)[C@@H](O[C@H]1[C@H](O)[C@H]2O)O[C@@H]7CO)O[C@@H]6CO)O[C@@H]5CO)O[C@@H]4CO)O[C@@H]3CO [αCD, α-cyclodextrin, reference compound] | − | − | + | + | − | − | + | + |  |  |  |  |  | turbidity of test enzyme solution (in words) [4, 13]: became turbid; turbidity of test enzyme solution (in words) [4, 14]: had already become turbid; Residual activity (%) ([2]; agent 1.5 mM): 70.5%

More lines, main results first:

turbidity (visual observation) [4, 5] | turbidity (visual observation) [4, 6] | turbidity (visual observation) [4, 7] | turbidity (visual observation) [4, 8] | turbidity (visual observation) [4, 9] | turbidity (visual observation) [4, 10] | turbidity (visual observation) [4, 11] | turbidity (visual observation) [4, 12] | Residual activity (%) ([2]; agent 12 mM) | Relative sensitivity (%) when sensitivity in case of no addition is taken as 100% ([3]; agent 1.5 mM) [%] | Relative sensitivity (%) when sensitivity in case of no addition is taken as 100% ([3]; agent 3 mM) [%] | Relative sensitivity (%) when sensitivity in case of no addition is taken as 100% ([3]; agent 6 mM) [%] | Relative sensitivity (%) when sensitivity in case of no addition is taken as 100% ([3]; agent 12 mM) [%] | SMILES | also measured
− | − | − | − | − | − | − | − | 80.4 | 112.8 | 120.2 | 122.3 | 118.9 | OCC1OC(OCC2OC3OC4C(CO)OC(OC5C(CO)OC(OC6C(CO)OC(OC7C(CO)OC(OC8C(CO)OC(OC2C(O)C3O)C(O)C8O)C(O)C7O)C(O)C6O)C(O)C5O)C(O)C4O)C(O)C(O)C1O (stereo not drawn) [G1αCD, glucosyl-α-cyclodextrin] | 
− | − | − | − | − | − | − | − | 82.3 | 112.5 | 123.0 | 119.4 | 122.8 | OCC1OC(OC2C(CO)OC(OCC3OC4OC5C(CO)OC(OC6C(CO)OC(OC7C(CO)OC(OC8C(CO)OC(OC9C(CO)OC(OC3C(O)C4O)C(O)C9O)C(O)C8O)C(O)C7O)C(O)C6O)C(O)C5O)C(O)C2O)C(O)C(O)C1O (stereo not drawn) [G2αCD, maltosyl-α-cyclodextrin] | 
− | − | − | − | − | − | − | − | 93.0 | 122.8 | 120.7 | 120.2 | 123.0 | OCC1OC(OC2C(CO)OC(OCC3OC4OC5C(CO)OC(OC6C(CO)OC(OC7C(CO)OC(OC8C(CO)OC(OC9C(CO)OC(OC%10C(CO)OC(OC3C(O)C4O)C(O)C%10O)C(O)C9O)C(O)C8O)C(O)C7O)C(O)C6O)C(O)C5O)C(O)C2O)C(O)C(O)C1O (stereo not drawn) [G2βCD, maltosyl-β-cyclodextrin] | 
− | − | + | + | − | − | + | + |  |  |  |  |  | OC[C@H]1O[C@@H]2O[C@H]3[C@H](O)[C@@H](O)[C@@H](O[C@H]4[C@H](O)[C@@H](O)[C@@H](O[C@H]5[C@H](O)[C@@H](O)[C@@H](O[C@H]6[C@H](O)[C@@H](O)[C@@H](O[C@H]7[C@H](O)[C@@H](O)[C@@H](O[C@H]8[C@H](O)[C@@H](O)[C@@H](O[C@H]9[C@H](O)[C@@H](O)[C@@H](O[C@H]1[C@H](O)[C@H]2O)O[C@@H]9CO)O[C@@H]8CO)O[C@@H]7CO)O[C@@H]6CO)O[C@@H]5CO)O[C@@H]4CO)O[C@@H]3CO [γCD, γ-cyclodextrin, reference compound] | turbidity of test enzyme solution (in words) [4, 13]: became turbid; turbidity of test enzyme solution (in words) [4, 14]: had already become turbid; Residual activity (%) ([2]; agent 1.5 mM): 74.6%
